Results reported in patent publication US9670227B2, “Thienopyrimidine derivatives, a process for their preparation and pharmaceutical compositions containing them” (LES LABORATOIRES SERVIER, priority 2013, dated 2017).

Columns and labels:
[1] = target: Mcl-1 protein (UniProtKB primary accession number: Q07820) (Homo sapiens, UniProt Q07820); test: Inhibition of Mcl-1 by fluorescence polarisation, Method 1; format: binding; conditions: fluorescence polarisation test; Method 2 values are underlined in the patent (underlining not visible here); read-out: IC50 (M) Mcl-1 FP
Sequence of Mcl-1 protein (Q07820 whole entry): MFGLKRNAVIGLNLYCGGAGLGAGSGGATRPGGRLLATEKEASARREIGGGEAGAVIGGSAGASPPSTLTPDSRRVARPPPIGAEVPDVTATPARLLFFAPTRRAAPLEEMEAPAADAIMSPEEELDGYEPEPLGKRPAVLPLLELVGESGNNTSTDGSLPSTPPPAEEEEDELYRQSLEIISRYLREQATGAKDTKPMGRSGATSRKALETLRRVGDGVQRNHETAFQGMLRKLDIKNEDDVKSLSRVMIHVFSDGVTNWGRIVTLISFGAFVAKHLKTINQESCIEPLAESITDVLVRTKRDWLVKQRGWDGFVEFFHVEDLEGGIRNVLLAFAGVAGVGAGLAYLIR
Method in brief: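 FP competition, 11-point compound titration in 5% final DMSO; protein and labelled probe at 5 nM and 1 nM final in HEPES/NaCl/Tween 20 buffer, pH 7.4.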

[2] = test system: H929 multiple myeloma tumour line; test: In vitro cytotoxicity, Microculture Tetrazolium Assay; format: cell-based; conditions: Homo sapiens, NCI-H929, 48 h, H929 cells, 48 hours exposure, MTT; read-out: IC50 (μM) MTT H929
Protocol: The cytotoxicity studies were carried out on the H929 multiple myeloma tumour line.
The cells are distributed onto microplates and exposed to the test compounds for 48 hours.

| SMILES | IC50 [1] | IC50 [2] |
| --- | --- | --- |
| COCCN(C)c1nccc(COc2ccccc2CC(Oc2ncnc3sc(-c4ccc(F)cc4)c(-c4ccc(OCCN5CCN(C)CC5)c(Cl)c4C)c23)C(=O)O)n1 [Example 48, (2R)-2-{[(5Sa)-5-{3-chloro-2-methyl-4-[2-(4-methylpiperazin-1-yl)ethoxy]phenyl}-6-(4-fluorophenyl)thieno[2,3-d]pyrimidin-4-yl]oxy}-3-[2-({2-[(2-methoxyethyl)(methyl)amino]pyrimidin-4-yl}methoxy)phenyl]propanoic acid] | 1.1e-08 M | 0.122 µM |
| Cc1c(-c2c(-c3ccc(F)cc3)sc3ncnc(OC(Cc4ccccc4OCc4ccnc(N5CCN(C)CC5)n4)C(=O)O)c23)ccc(OCCN2CCN(C)CC2)c1Cl [Example 50, (2R)-2-{[(5Sa)-5-{3-chloro-2-methyl-4-[2-(4-methylpiperazin-1-yl)ethoxy]phenyl}-6-(4-fluorophenyl)thieno[2,3-d]pyrimidin-4-yl]oxy}-3-(2-{[2-(4-methylpiperazin-1-yl)pyrimidin-4-yl]methoxy}phenyl)propanoic acid] | 7.6e-09 M | 0.076 µM |
| Cc1c(-c2c(-c3ccc(F)cc3)sc3ncnc(OC(Cc4ccccc4OCc4ccnc(-n5ccnn5)n4)C(=O)O)c23)ccc(OCCN2CCN(C)CC2)c1Cl [Example 51, (2R)-2-{[(5Sa)-5-{3-chloro-2-methyl-4-[2-(4-methylpiperazin-1-yl)ethoxy]phenyl}-6-(4-fluorophenyl)thieno[2,3-d]pyrimidin-4-yl]oxy}-3-(2-{[2-(1H-1,2,3-triazol-1-yl)pyrimidin-4-yl]methoxy}phenyl)propanoic acid] | 3.5e-09 M | 0.038 µM |
| Cc1c(-c2c(-c3ccc(F)cc3)sc3ncnc(OC(Cc4ccccc4OCc4ccnc(Oc5ccccc5)n4)C(=O)O)c23)ccc(OCCN2CCN(C)CC2)c1Cl [Example 56, (2R)-2-{[(5Sa)-5-{3-chloro-2-methyl-4-[2-(4-methylpiperazin-1-yl)ethoxy]phenyl}-6-(4-fluorophenyl)thieno[2,3-d]pyrimidin-4-yl]oxy}-3-{2-[(2-phenoxypyrimidin-4-yl)methoxy]phenyl}propanoic acid] | 4.4e-09 M | 0.022 µM |
| Cc1c(-c2c(-c3ccc(F)cc3)sc3ncnc(OC(Cc4ccccc4OCc4ccnc(OCc5ccncc5)n4)C(=O)O)c23)ccc(OCCN2CCN(C)CC2)c1Cl [Example 59, (2R)-2-{[(5Sa)-5-{3-chloro-2-methyl-4-[2-(4-methylpiperazin-1-yl)ethoxy]phenyl}-6-(4-fluorophenyl)thieno[2,3-d]pyrimidin-4-yl]oxy}-3-(2-{[2-(pyridin-4-ylmethoxy)pyrimidin-4-yl]methoxy}phenyl)propanoic acid] | 4e-09 M | 0.021 µM |
| Cc1c(-c2c(-c3ccc(F)cc3)sc3ncnc(OC(Cc4ccccc4OCc4ccnc(OCc5cncn5C)n4)C(=O)O)c23)ccc(OCCN2CCN(C)CC2)c1Cl [Example 60, (2R)-2-{[(5Sa)-5-{3-chloro-2-methyl-4-[2-(4-methylpiperazin-1-yl)ethoxy]phenyl}-6-(4-fluorophenyl)thieno[2,3-d]pyrimidin-4-yl]oxy}-3-[2-({2-[(1-methyl-1H-imidazol-5-yl)methoxy]pyrimidin-4-yl}methoxy)phenyl]propanoic acid] | 2.4e-09 M | 0.17 µM |
| CCCOc1nccc(COc2ccccc2CC(Oc2ncnc3sc(-c4ccc(F)cc4)c(-c4ccc(OCCN5CCN(C)CC5)c(Cl)c4C)c23)C(=O)O)n1 [Example 61, (2R)-2-{[(5Sa)-5-{3-chloro-2-methyl-4-[2-(4-methylpiperazin-1-yl)ethoxy]phenyl}-6-(4-fluorophenyl)thieno[2,3-d]pyrimidin-4-yl]oxy}-3-{2-[(2-propoxypyrimidin-4-yl)methoxy]phenyl}propanoic acid] | 6.7e-09 M | 0.01 µM |
| CCOCCOc1nccc(COc2ccccc2CC(Oc2ncnc3sc(-c4ccc(F)cc4)c(-c4ccc(OCCN5CCN(C)CC5)c(Cl)c4C)c23)C(=O)O)n1 [Example 64, (2R)-2-{[(5Sa)-5-{3-chloro-2-methyl-4-[2-(4-methylpiperazin-1-yl)ethoxy]phenyl}-6-(4-fluorophenyl)thieno[2,3-d]pyrimidin-4-yl]oxy}-3-(2-{[2-(2-ethoxyethoxy)pyrimidin-4-yl]methoxy}phenyl)propanoic acid] | 4.4e-09 M | 0.018 µM |
| CSc1nccc(COc2ccccc2CC(Oc2ncnc3sc(-c4ccc(F)cc4)c(-c4ccc(OCCN5CCN(C)CC5)c(Cl)c4C)c23)C(=O)O)n1 [Example 65, (2R)-2-{[(5Sa)-5-{3-chloro-2-methyl-4-[2-(4-methylpiperazin-1-yl)ethoxy]phenyl}-6-(4-fluorophenyl)thieno[2,3-d]pyrimidin-4-yl]oxy}-3-(2-{[2-(methylsulfanyl)pyrimidin-4-yl]methoxy}phenyl)propanoic acid] | 1e-08 M | 0.043 µM |
| COCCCSc1nccc(COc2ccccc2CC(Oc2ncnc3sc(-c4ccc(F)cc4)c(-c4ccc(OCCN5CCN(C)CC5)c(Cl)c4C)c23)C(=O)O)n1 [Example 66, (2R)-2-{[(5Sa)-5-{3-chloro-2-methyl-4-[2-(4-methylpiperazin-1-yl)ethoxy]phenyl}-6-(4-fluorophenyl)thieno[2,3-d]pyrimidin-4-yl]oxy}-3-[2-({2-[(3-methoxypropyl)sulfanyl]pyrimidin-4-yl}methoxy)phenyl]propanoic acid] | 4.6e-09 M | 0.037 µM |
| COCCSc1nccc(COc2ccccc2CC(Oc2ncnc3sc(-c4ccc(F)cc4)c(-c4ccc(OCCN5CCN(C)CC5)c(Cl)c4C)c23)C(=O)O)n1 [Example 67, (2R)-2-{[(5Sa)-5-{3-chloro-2-methyl-4-[2-(4-methylpiperazin-1-yl)ethoxy]phenyl}-6-(4-fluorophenyl)thieno[2,3-d]pyrimidin-4-yl]oxy}-3-[2-({2-[(2-methoxyethyl)sulfanyl]pyrimidin-4-yl}methoxy)phenyl]propanoic acid] | 3.4e-09 M | 0.03 µM |
| Cc1c(-c2c(-c3ccc(F)cc3)sc3ncnc(OC(Cc4ccccc4OCc4ccncn4)C(=O)O)c23)ccc(OCCN2CCN(C)CC2)c1Cl [Example 68, (2R)-2-{[(5Sa)-5-{3-chloro-2-methyl-4-[2-(4-methylpiperazin-1-yl)ethoxy]phenyl}-6-(4-fluorophenyl)thieno[2,3-d]pyrimidin-4-yl]oxy}-3-[2-(pyrimidin-4-ylmethoxy)phenyl]propanoic acid] | 9.1e-09 M | 0.035 µM |
| Cc1c(-c2c(-c3ccc(F)cc3)sc3ncnc(OC(Cc4ccccc4OCc4ccnn4C4CCCC4)C(=O)O)c23)ccc(OCCN2CCN(C)CC2)c1Cl [Example 72, (2R)-2-{[(5Sa)-5-{3-chloro-2-methyl-4-[2-(4-methylpiperazin-1-yl)ethoxy]phenyl}-6-(4-fluorophenyl)thieno[2,3-d]pyrimidin-4-yl]oxy}-3-{2-[(1-cyclopentyl-1H-pyrazol-5-yl)methoxy]phenyl}propanoic acid] | 9.3e-09 M | 0.04 µM |
| Cc1c(-c2c(-c3ccc(F)cc3)sc3ncnc(OC(Cc4ccccc4OCc4ccnn4C4CCCCC4)C(=O)O)c23)ccc(OCCN2CCN(C)CC2)c1Cl [Example 73, (2R)-2-{[(5Sa)-5-{3-chloro-2-methyl-4-[2-(4-methylpiperazin-1-yl)ethoxy]phenyl}-6-(4-fluorophenyl)thieno[2,3-d]pyrimidin-4-yl]oxy}-3-{2-[(1-cyclohexyl-1H-pyrazol-5-yl)methoxy]phenyl}propanoic acid] | 8.3e-09 M | 0.122 µM |
| Cc1c(-c2c(-c3ccc(F)cc3)sc3ncnc(OC(Cc4ccccc4OCc4ccnn4-c4ccccc4)C(=O)O)c23)ccc(OCCN2CCN(C)CC2)c1Cl [Example 74, (2R)-2-{[(5Sa)-5-{3-chloro-2-methyl-4-[2-(4-methylpiperazin-1-yl)ethoxy]phenyl}-6-(4-fluorophenyl)thieno[2,3-d]pyrimidin-4-yl]oxy}-3-{2-[(1-phenyl-1H-pyrazol-5-yl)methoxy]phenyl}propanoic acid] | 1.6e-08 M | 0.365 µM |
| Cc1c(-c2c(-c3ccc(F)cc3)sc3ncnc(OC(Cc4ccccc4OCc4ccnn4C4CCOCC4)C(=O)O)c23)ccc(OCCN2CCN(C)CC2)c1Cl [Example 75, (2R)-2-{[(5Sa)-5-{3-chloro-2-methyl-4-[2-(4-methylpiperazin-1-yl)ethoxy]phenyl}-6-(4-fluorophenyl)thieno[2,3-d]pyrimidin-4-yl]oxy}-3-(2-{[1-(tetrahydro-2H-pyran-4-yl)-1H-pyrazol-5-yl]methoxy}phenyl)propanoic acid] | 4e-09 M | 0.11 µM |
| Cc1c(-c2c(-c3ccc(F)cc3)sc3ncnc(OC(Cc4ccccc4OCc4ccnn4CC4CC4)C(=O)O)c23)ccc(OCCN2CCN(C)CC2)c1Cl [Example 78, (2R)-2-{[(5Sa)-5-{3-chloro-2-methyl-4-[2-(4-methylpiperazin-1-yl)ethoxy]phenyl}-6-(4-fluorophenyl)thieno[2,3-d]pyrimidin-4-yl]oxy}-3-(2-{[1-(cyclopropylmethyl)-1H-pyrazol-5-yl]methoxy}phenyl)propanoic acid] | 6.6e-09 M | 0.033 µM |
| COc1ccc(Cn2nccc2COc2ccccc2CC(Oc2ncnc3sc(-c4ccc(F)cc4)c(-c4ccc(OCCN5CCN(C)CC5)c(Cl)c4C)c23)C(=O)O)cc1 [Example 79, (2R)-2-{[(5Sa)-5-{3-chloro-2-methyl-4-[2-(4-methylpiperazin-1-yl)ethoxy]phenyl}-6-(4-fluorophenyl)thieno[2,3-d]pyrimidin-4-yl]oxy}-3-(2-{[1-(4-methoxybenzyl)-1H-pyrazol-5-yl]methoxy}phenyl)propanoic acid] | 1.3e-08 M | 0.168 µM |
